Data as given in patent US10532980B2, “N-methyl pyrazoles” (Prosetta Antiviral, Inc., priority 2015, dated 2020).

test system: Influenza A virus (A/WSN/1933(H1N1)); assay: microbe, parasite or virus in culture; assay type: cell-based; conditions: MDCK, 24 h with compound, then 2 h drug-free medium

| SMILES | EC90 |
| --- | --- |
| Cn1nc(C(C)(C)C)cc1C(=O)NCc1cccc(OC(F)(F)F)c1O [Compound 34, 3-(tert-butyl)-N-(2-hydroxy-3-(trifluoromethoxy)benzyl)-1-methyl-1H-pyrazole-5-carboxamide] | 1200 nM |
| COc1c(CNC(=O)c2cc(C(C)(C)C)nn2C)cccc1OC(F)(F)F [Compound 35, 3-(tert-butyl)-N-(2-methoxy-3-(trifluoromethoxy)benzyl)-1-methyl-1H-pyrazole-5-carboxamide] | 200 nM |
| COc1c(CNC(=O)c2cc(C3CC3)nn2C)cccc1OC(F)(F)F [Compound 36, 3-cyclopropyl-N-(2-methoxy-3-(trifluoromethoxy)benzyl)-1-methyl-1H-pyrazole-5-carboxamide] | 100 nM |
| CCOc1cccc(CNC(=O)c2cc(C(C)(C)C)nn2C)c1OC(F)F [Compound 37, 3-(tert-butyl)-N-(2-(difluoromethoxy)-3-ethoxybenzyl)-1-methyl-1H-pyrazole-5-carboxamide] | 100 nM |
| CCOc1cccc(CNC(=O)c2cc(C3CC3)nn2C)c1OC(F)F [Compound 38, 3-cyclopropyl-N-(2-(difluoromethoxy)-3-ethoxybenzyl)-1-methyl-1H-pyrazole-5-carboxamide] | 100 nM |
| COc1c(CNC(=O)c2cc(C3CC3)nn2C)cccc1OCC1CCCC1 [Compound 39, N-(3-(cyclopentylmethoxy)-2-methoxybenzyl)-3-cyclopropyl-1-methyl-1H-pyrazole-5-carboxamide] | 100 nM |
| Cc1cc(CNC(=O)c2cc(C(C)C)nn2C)cc(C)c1OC(F)F [Compound 40, N-(4-(difluoromethoxy)-3,5-dimethylbenzyl)-3-isopropyl-1-methyl-1H-pyrazole-5-carboxamide] | 400 nM |
| CCOc1c(Br)cc(CNC(=O)c2cc(C3CC3)nn2C)cc1OC [Compound 41, N-(3-bromo-4-ethoxy-5-methoxybenzyl)-3-cyclopropyl-1-methyl-1H-pyrazole-5-carboxamide] | 400 nM |
| CCCOc1c(Cl)cc(CNC(=O)c2cc(C(C)C)nn2C)cc1OC [Compound 42, N-(3-chloro-4-propoxy-5-methoxybenzyl)-3-isopropyl-1-methyl-1H-pyrazole-5-carboxamide] | 200 nM |
| CCOc1c(F)cc(CNC(=O)c2cc(C3CC3)nn2C)cc1Cl [Compound 43, N-(3-chloro-4-ethoxy-5-fluorobenzyl)-3-cyclopropyl-1-methyl-1H-pyrazole-5-carboxamide] | 400 nM |
| CCOc1cc(F)c(CNC(=O)c2cc(C3CC3)nn2C)cc1Cl [Compound 44, N-(5-chloro-4-ethoxy-2-fluorobenzyl)-3-cyclopropyl-1-methyl-1H-pyrazole-5-carboxamide] | 400 nM |
| Cn1nc(C(C)(C)C)cc1C(=O)NCc1cc(Cl)c2c(c1)OCCCO2 [Compound 45, 3-(tert-butyl)-N-((9-chloro-3,4-dihydro-2H-benzo[b][1,4]dioxepin-7-yl)methyl)-1-methyl-1H-pyrazole-5-carboxamide] | 1000 nM |
| COc1ccc(F)c(CNC(=O)c2cc(C(C)(C)C)nn2C)c1OC [Compound 46, 3-(tert-butyl)-N-(6-fluoro-2,3-dimethoxybenzyl)-1-methyl-1H-pyrazole-5-carboxamide] | 1000 nM |
